Source: patent US5476952A, “Antitumor cyclopentnaphthoquinone and cyclopentanthraquinone derivatives” (Sloan-Kettering Institute for Cancer Research, priority 1993, dated 1995)
pIC50: −log10 of the molar value. Read-outs that look alike come from different tables or passages of the source.

Key:
[1] = tested on: L1210 cells; test: effect against L1210 in mice (mice inoculated i.p. with L1210 cells); type: in vivo; set-up: AST / survival time: unit not given here; settings: for % ILS (increase in lifespan): 25% or greater considered significant; for survival time: individual mice
Description: *Increase in lifespan of 25% or greater is considered to be significant.
Mice dying of toxicity (t) not included in AST evaluation.

[2] = tested on: human leukemic HL-60; test: in vitro cell growth inhibition, HL-60; type: cell-based; settings: for pIC50 / antitumor activity against human leukemic HL-60 cell growth (in words): HL-60, in vitro
Description: (§1) Compounds of the invention show antitumor activity. The antitumor activity of the representative cyclopentanthraquinone derivatives is compared with Mitomycin C, m-AMSA and adriamycin.

[3] = tested on: L1210; test: in vitro cell growth inhibition, L1210; type: cell-based
Description: as §1

[4] = tested on: MT4; test: in vitro cell growth inhibition, MT4; type: cell-based, human; settings: for pIC50 / antitumor activity against MT4 cell growth (in words): MT4, in vitro
Description: as §1

[5] = tested on: DNA; settings: literature; cited from earlier work
[6] = literature; cited from earlier work
[7] = tested on: certain tumor cell growth; settings: literature; without alkylating side chain; cited from earlier work
[8] = L1210, in vitro, read-out: IC50 for Cell Growth Inhibition, L1210
[9] = Mus musculus, L1210, in vitro, read-out: IC50 for Cell Growth Inhibition, L1210

Structure (SMILES) | AST ([1]; 2.5 mg/kg QD x5, i.p.) | N/T ([1]; 2.5 mg/kg QD x5, i.p.) | % ILS (increase in lifespan) ([1]; 2.5 mg/kg QD x5, i.p.) | day 4 AWC ([1]; 2.5 mg/kg QD x5, i.p.) | N/T ([1]; 5.0 mg/kg QD x5, i.p.) | day 4 AWC ([1]; 5.0 mg/kg QD x5, i.p.) | AST ([1]; 20 mg/kg x1, i.p.) | N/T ([1]; 20 mg/kg x1, i.p.) | % ILS (increase in lifespan) ([1]; 20 mg/kg x1, i.p.) | survival time ([1]; 20 mg/kg x1, i.p.) | antitumor activity against L1210 cell growth (in words) ([3]; L1210, in vitro) | pIC50 [3, 9] | other results
O=C1c2ccccc2C(=O)c2c1cc(OCCN(CCCl)CCCl)c1c2CC2NC12 (stereo not drawn) [compound IIc, 2,3-aziridino-4-[2-bis(2-chloroethyl)amino]-ethoxy-2,3-dihydro-1H-cyclopent [a]anthracene-6,11-dione] | 9.0 | 0/3 | 36% | +0.3 g | 0/3 | -0.3 g | 9.0 | 0/1 | 36% | 9 | much greater antitumor activity than that of IIa and IIb |  | AST ([1]; 5.0 mg/kg QD x5, i.p.): 9.0; % ILS (increase in lifespan) ([1]; 5.0 mg/kg QD x5, i.p.): 36%; day 7 AWC ([1]; 5.0 mg/kg QD x5, i.p.): +1.7 g; day 4 AWC ([1]; 20 mg/kg x1, i.p.): -2.5 g; day 7 AWC ([1]; 20 mg/kg x1, i.p.): +1.5 g; pIC50 [2]: 7.12; antitumor activity against human leukemic HL-60 cell growth (in words) [2]: significant antitumor activity; potency relative to m-AMSA against HL-60 cell growth ([2]; compared with m-AMSA, HL-60): as potent as m-AMSA; pIC50 [3, 8]: 7.19; pIC50 [4]: 7.16; antitumor activity against MT4 cell growth (in words) [4]: significant antitumor activity; activity relative to m-AMSA against MT4 cell growth ([4]; compared with m-AMSA, MT4): half as active as m-AMSA
O=C1c2ccccc2C(=O)c2c1cc(OCCN(CCCl)CCCl)c1c2CCC1 [compound IIb, 4-[2-bis(2-chloroethyl)amino]ethoxy-2,3-dihydro-1H-cyclopent[a]anthracene-6,11-dione] | 9.0 | 0/3 | 36% | +0.3 g | 0/3 | -0.3 g | 9.0 | 0/1 | 36% | 9 | significant antitumor activity |  | day 7 AWC ([1]; 2.5 mg/kg QD x5, i.p.): +1.0 g; AST ([1]; 5.0 mg/kg QD x5, i.p.): 9.0; % ILS (increase in lifespan) ([1]; 5.0 mg/kg QD x5, i.p.): 36%; day 7 AWC ([1]; 5.0 mg/kg QD x5, i.p.): +0.7 g; day 4 AWC ([1]; 20 mg/kg x1, i.p.): -2.5 g; day 7 AWC ([1]; 20 mg/kg x1, i.p.): +0.5 g; pIC50 [2]: 6.74; antitumor activity against human leukemic HL-60 cell growth (in words) [2]: significant antitumor activity; pIC50 [3, 8]: 6.54; pIC50 [4]: 6.96; antitumor activity against MT4 cell growth (in words) [4]: significant antitumor activity
CCN(CC)CCNc1ccc(C)c2sc3ccccc3c(=O)c12 [lucanthone] |  |  |  |  |  |  |  |  |  |  |  |  | interaction with DNA (in words) [5]: capable of intercalating into DNA and monoalkylating the DNA; antischistosomal and antitumor activity (in words) [6]: potent antischistosomal and antitumor activity
COc1cc(NS(C)(=O)=O)ccc1Nc1c2ccccc2nc2ccccc12 [m-AMSA, reference compound] |  |  |  |  |  |  |  |  |  |  |  | 8.40 | pIC50 ([2]; Homo sapiens): 7.10; pIC50 ([4]; Homo sapiens): 7.47
O=C1c2ccccc2C(=O)c2c1ccc1c2CC2NC12 (stereo not drawn) [compound IIa, 2,3-aziridino-2,3-dihydro-1H-cyclopent[a]anthracene-6,11-dione] |  |  |  |  |  |  |  |  |  |  | less activity |  | pIC50 ([3]; Mus musculus, L1210, read-out: IC50 for Cell Growth Inhibition, L1210): 5.04
Cc1cc(O)c2c(c1)C(=O)c1cccc(O)c1C2=O [chrysophanol] |  |  |  |  |  |  |  |  |  |  |  |  | activity of the parent natural product (in words) [7]: inactive
Cc1cc(O)c2c(c1)C(=O)c1cc(O)cc(O)c1C2=O [emodin] |  |  |  |  |  |  |  |  |  |  |  |  | activity of the parent natural product (in words) [7]: inactive
CO[C@@]12[C@H](COC(N)=O)C3=C(C(=O)C(C)=C(N)C3=O)N1C[C@@H]1N[C@@H]12 [Mit-C, reference compound] | 12.7 | 0/3 | 92% | +1.0 g | 0/3 | -2.0 g | 11.0 | 0/1 | 67% | 11 |  | 8.30 | day 7 AWC ([1]; 2.5 mg/kg QD x5, i.p.): -0.3 g; interaction with DNA (in words) [5]: bind covalently at the minor groove of DNA double strand forming interstrand cross-links
COc1cccc2c1C(=O)c1c(O)c3c(c(O)c1C2=O)C[C@@](O)(C(=O)CO)C[C@@H]3O[C@H]1C[C@H](N)[C@H](O)[C@H](C)O1 [Adriamycin, reference compound] |  |  |  |  |  |  |  |  |  |  |  | 7.70 | pIC50 ([2]; Homo sapiens): 7.52
